Assay [1] deals with phospho-MerTK in BaF3.MerTK tumors. As to the kind of experiment: In vivo Ba/F3 pMER ALISA assay. Particulars: orally; for % inhibition: 50 milligrams per kilogram, single dose, tumors harvested 4 hours after, phospho-MerTK normalized to total MerTK.
Description: BaF3.MerTK tumor cells were mixed with 50% Matrigel (BD, Franklin Lakes, NJ). […] Tumors were allocated into dose groups at 10 to 11 days post tumor cell inoculation, when they were roughly 250-400 mm^3 in size. Test compounds were formulated in 10% ethanol, 30% PEG-400, and 60% Phosal-50PG, for oral dosing at 0.2 mL per dose per mouse. Plasma and tumors were harvested 4 hours after a single dose. Ba/F3 tumors were harvested into 2 mL Precellys CKmix tubes, snap frozen in liquid nitrogen, and stored at −80° C. overnight. […] Precellys tubes were then centrifuged at >18,000 g for 20 minutes at 4° C. and the supernatant was collected on ice. The lysate was then centrifuged again at >18,000 g for 10 minutes at 4° C. to remove any residual debris. […] Plates were then frozen at −80° C. overnight.
For another assay, the target named is T1, human AXL (473-end) (Homo sapiens, UniProt P30530).
T1 construct: human AXL (473-end); purchased SignalChem, Canada
T1 sequence (P30530 473-894 limits assumed): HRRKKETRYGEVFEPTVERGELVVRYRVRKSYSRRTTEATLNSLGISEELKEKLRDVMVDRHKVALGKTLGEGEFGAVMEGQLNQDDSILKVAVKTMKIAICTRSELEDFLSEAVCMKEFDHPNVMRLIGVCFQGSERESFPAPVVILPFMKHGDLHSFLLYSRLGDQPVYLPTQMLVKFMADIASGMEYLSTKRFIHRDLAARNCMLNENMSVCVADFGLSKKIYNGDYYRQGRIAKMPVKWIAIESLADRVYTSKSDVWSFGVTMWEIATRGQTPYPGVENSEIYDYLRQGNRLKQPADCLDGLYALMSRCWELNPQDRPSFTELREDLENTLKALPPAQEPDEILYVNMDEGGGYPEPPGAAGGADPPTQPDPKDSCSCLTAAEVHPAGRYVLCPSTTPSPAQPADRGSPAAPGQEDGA
As to the kind of experiment: HTRF kinase activity biochemical assay, AXL. A general note: TR-FRET usually uses a lanthanide donor and a delayed reading to cut background.

Another assay deals with T2, human TYRO3 (455-end) (Homo sapiens, UniProt Q06418).
T2 construct: TYRO3 (455-end); purchased SignalChem, Canada
T2 sequence (Q06418 455-890 limits assumed): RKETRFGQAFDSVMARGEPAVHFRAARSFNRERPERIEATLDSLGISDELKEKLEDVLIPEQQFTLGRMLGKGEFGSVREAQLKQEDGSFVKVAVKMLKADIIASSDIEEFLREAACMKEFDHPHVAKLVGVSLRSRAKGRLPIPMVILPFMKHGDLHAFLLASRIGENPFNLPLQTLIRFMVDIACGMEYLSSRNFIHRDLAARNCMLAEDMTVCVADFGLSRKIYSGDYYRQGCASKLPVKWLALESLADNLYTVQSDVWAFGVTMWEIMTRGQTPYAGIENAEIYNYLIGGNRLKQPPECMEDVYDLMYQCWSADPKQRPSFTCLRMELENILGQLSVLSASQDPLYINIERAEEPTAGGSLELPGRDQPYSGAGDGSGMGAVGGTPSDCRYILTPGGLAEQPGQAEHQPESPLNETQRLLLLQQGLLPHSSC
As to the kind of experiment: HTRF kinase activity biochemical assay, TYRO3. Particulars: 10 μM ATP, 30 minutes pre-incubation; read-out: HTRF TYRO IC50.

A further assay deals with T3, human MER (528-end) (Homo sapiens, UniProt Q12866).
T3 construct: human MER (528-end); purchased Camnabio, Japan
T3 sequence (Q12866 528-999 limits assumed): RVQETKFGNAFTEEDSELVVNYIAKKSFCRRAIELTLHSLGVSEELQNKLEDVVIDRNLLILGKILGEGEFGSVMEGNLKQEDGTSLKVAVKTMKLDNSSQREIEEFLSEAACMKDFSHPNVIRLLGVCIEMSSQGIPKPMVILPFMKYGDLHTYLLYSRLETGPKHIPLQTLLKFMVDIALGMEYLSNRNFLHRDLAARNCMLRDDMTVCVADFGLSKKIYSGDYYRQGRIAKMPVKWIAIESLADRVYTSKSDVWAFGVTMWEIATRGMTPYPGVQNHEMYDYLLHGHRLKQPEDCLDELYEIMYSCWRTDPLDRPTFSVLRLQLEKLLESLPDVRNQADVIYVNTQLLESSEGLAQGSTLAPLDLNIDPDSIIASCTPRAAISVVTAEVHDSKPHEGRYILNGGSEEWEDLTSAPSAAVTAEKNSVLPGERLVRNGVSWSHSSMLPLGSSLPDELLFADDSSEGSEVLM
As to the kind of experiment: HTRF kinase activity biochemical assay, MER.

The mark [2] stands for this setting: 10 μM ATP, 30 minutes pre-incubation.
Setting [3] is: 10 μM ATP, 30 minutes pre-incubation, read-out: HTRF MERTK IC50.

The values below come from patent publication US20260146035A1, “FUSED BICYCLIC COMPOUNDS AND THEIR USE AS MER AND AXL INHIBITORS” (DONG-A ST CO., LTD., priority 2022, published 2026).

Read-outs that look alike come from different tables or passages of the source.

For orientation: % inhibition means the relative decrease from the control value, in per cent. Lower therefore signals little suppression. A word on the IC50: it is the concentration needed to halve the response being measured. As for `CN1CCN(C2CC(C)(C)c3cc(-c4ccc(CO[C@H]5CCC[C@@H]5NC(=O)c5cc(-c6cnn(C)c6)cnc5N)cc4)ccc32)CC1` (stereo partly drawn) [Example 93, 2-amino-N-[(1S,2S)-2-({4-[3,3-dimethyl-1-(4-methylpiperazin-1-yl)-2,3-dihydro-1H-inden-5-yl]phenyl}methoxy)cyclopentyl]-5-(1-methyl-1H-pyrazol-4-yl)pyridine-3-carboxamide], the “% inhibition” value in assay [1] is reported as 53%. The IC50 against human AXL (473-end) (setting [2]), at human TYRO3 (455-end) and at human MER (528-end) (setting [3]) was less than 10 nM each time.
With `Cn1cc(-c2cnc(N)c(C(=O)N[C@H]3CCC[C@@H]3OCc3ccc(-c4ccc5c(c4)C(C)(C)C[C@@H]5N4CCN(CCO)CC4)cc3)c2)cn1` [Example 103, 2-amino-N-{(1S,2S)-2-[(4-{(1S)-1-[4-(2-hydroxyethyl)piperazin-1-yl]-3,3-dimethyl-2,3-dihydro-1H-inden-5-yl}phenyl)methoxy]cyclopentyl}-5-(1-methyl-1H-pyrazol-4-yl)pyridine-3-carboxamide], the “% inhibition” value in assay [1] was 74%. Further, the “% inhibition in the in vivo Ba/F3 pMer ALISA Assay” value in assay [1] (as shown in Tables 3 and 4: 50 milligrams per kilogram) came out at 74%. For the same compound, the IC50 against human AXL (473-end) (setting [2]) is less than 10 nM; on human AXL (473-end) (in vitro), less than 10 nM; on human TYRO3 (455-end), less than 10 nM; at human MER (528-end) (setting [3]), less than 10 nM; on human MER (528-end) (in vitro, read-out: HTRF MerTK IC50), less than 10 nM.
For `Nc1ncc(-c2ccc(F)nc2)cc1C(=O)N[C@H]1CCC[C@@H]1OCc1ccc(-c2ccc3c(c2)CC[C@@H]3N2CCN3C[C@H](O)C[C@H]3C2)cc1` [Example 117, 6-amino-6′-fluoro-N-{(1S,2S)-2-[(4-{(1S)-1-[(7R,8aS)-7-hydroxyhexahydropyrrolo[1,2-a]pyrazin-2 (1H)-yl]-2,3-dihydro-1H-inden-5-yl}phenyl)methoxy]cyclopentyl}[3,3′-bipyridine]-5-carboxamide], in assay [1], the “% inhibition” value is recorded as 64%. The IC50 against human AXL (473-end) (setting [2]) was less than 10 nM; at human TYRO3 (455-end) it was 100 to 1000 nM; on human MER (528-end) (setting [3]) it was less than 10 nM.
As for `CN1CCN(C2CCCc3cc(-c4ccc(CO[C@H]5CCC[C@@H]5NC(=O)c5cc(-c6cnn(C)c6)cnc5N)cc4)ccc32)CC1` (stereo partly drawn) [Example 120, 2-amino-N-[(1S,2S)-2-({4-[5-(4-methylpiperazin-1-yl)-5,6,7,8-tetrahydronaphthalen-2-yl]phenyl}methoxy)cyclopentyl]-5-(1-methyl-1H-pyrazol-4-yl)pyridine-3-carboxamide], in assay [1], the “% inhibition” value was determined as 67%. Also, the IC50 against human AXL (473-end) (setting [2]) was less than 10 nM; on human TYRO3 (455-end) it was 10 to 100 nM; on human MER (528-end) (setting [3]), less than 10 nM.
`CN1CCN([C@H]2CC(C)(C)c3cc(-c4ccc(CO[C@H]5CCC[C@@H]5NC(=O)c5cc(-c6cnn(C)c6)cnc5N)cc4)ccc32)CC1` [Example 144, 2-amino-N-[(1S,2S)-2-({4-[(1S)-3,3-dimethyl-1-(4-methylpiperazin-1-yl)-2,3-dihydro-1H-inden-5-yl]phenyl}methoxy)cyclopentyl]-5-(1-methyl-1H-pyrazol-4-yl)pyridine-3-carboxamide]: in assay [1], the “% inhibition” value amounted to 93%. In addition, the IC50 on human AXL (473-end) (setting [2]), on human TYRO3 (455-end) and on human MER (528-end) (setting [3]) was less than 10 nM in each case.
Take `COc1ccc(-c2cnc(N)c(C(=O)N[C@H]3CCC[C@@H]3OCc3ccc(-c4ccc5c(c4)CC[C@@H]5N4CCN(CCO)CC4)cc3)c2)cn1` [Example 151, 6-amino-N-{(1S,2S)-2-[(4-{(1S)-1-[4-(2-hydroxyethyl)piperazin-1-yl]-2,3-dihydro-1H-inden-5-yl}phenyl)methoxy]cyclopentyl}-6′-methoxy[3,3′-bipyridine]-5-carboxamide]: in assay [1], the “% inhibition” value was 66%. Besides, the IC50 on human AXL (473-end) (setting [2]) is less than 10 nM; on human TYRO3 (455-end) it was 10 to 100 nM; on human MER (528-end) (setting [3]), less than 10 nM.
Consider `CC1(C)C[C@H](N2CCN(CCO)CC2)c2ccc(-c3ccc(CO[C@H]4CCC[C@@H]4NC(=O)c4cc(-c5cccnc5F)cnc4N)cc3)cc21` [Example 159, 6-amino-2′-fluoro-N-{(1S,2S)-2-[(4-{(1S)-1-[4-(2-hydroxyethyl)piperazin-1-yl]-3,3-dimethyl-2,3-dihydro-1H-inden-5-yl}phenyl)methoxy]cyclopentyl}[3,3′-bipyridine]-5-carboxamide], for which, in assay [1], the “% inhibition” value worked out at 89%. Further, the figures for the IC50 on human AXL (473-end) (setting [2]), at human TYRO3 (455-end) and at human MER (528-end) (setting [3]) were less than 10 nM, 10 to 100 nM and less than 10 nM, respectively.
Consider `Nc1ncc(-c2cccnc2F)cc1C(=O)N[C@H]1CCC[C@@H]1OCc1ccc(-c2ccc3c(c2)CC[C@@H]3N2CCN3C[C@H](O)C[C@H]3C2)cc1` [Example 160, 6-amino-2′-fluoro-N-{(1S,2S)-2-[(4-{(1S)-1-[(7R,8aS)-7-hydroxyhexahydropyrrolo[1,2-a]pyrazin-2 (1H)-yl]-2,3-dihydro-1H-inden-5-yl}phenyl)methoxy]cyclopentyl}[3,3′-bipyridine]-5-carboxamide], for which the “% inhibition” value in assay [1] worked out at 75%. The half-maximal inhibitory concentration (IC50) was less than 10 nM at human AXL (473-end) (setting [2]), 10 to 100 nM at human TYRO3 (455-end) and less than 10 nM on human MER (528-end) (setting [3]).
`Cn1cc(-c2cnc(N)c(C(=O)N[C@H]3CCC[C@@H]3OCc3ccc(-c4ccc5c(c4)CC[C@@H]5N4CCN5C[C@H](O)C[C@H]5C4)cc3)c2)cn1` [Example 161, 2-amino-N-{(1S,2S)-2-[(4-{(1S)-1-[(7R,8aS)-7-hydroxyhexahydropyrrolo[1,2-a]pyrazin-2 (1H)-yl]-2,3-dihydro-1H-inden-5-yl}phenyl)methoxy]cyclopentyl}-5-(1-methyl-1H-pyrazol-4-yl)pyridine-3-carboxamide]: the “% inhibition” value in assay [1] was 85%. For the same compound, the values for the 50% inhibitory concentration (IC50) at human AXL (473-end) (setting [2]), on human TYRO3 (455-end) and at human MER (528-end) (setting [3]) were less than 10 nM, 10 to 100 nM and less than 10 nM, respectively.
On to `CN1CCN([C@H]2CCCc3cc(-c4ccc(CO[C@H]5CCC[C@@H]5NC(=O)c5cc(-c6cnn(C)c6)cnc5N)cc4)ccc32)CC1` [Example 164, 2-amino-N-[(1S,2S)-2-({4-[(5S)-5-(4-methylpiperazin-1-yl)-5,6,7,8-tetrahydronaphthalen-2-yl]phenyl}methoxy)cyclopentyl]-5-(1-methyl-1H-pyrazol-4-yl)pyridine-3-carboxamide], for which, in assay [1], the “% inhibition” value was determined as 89%. Also, the IC50 at human AXL (473-end) (setting [2]), on human TYRO3 (455-end) and at human MER (528-end) (setting [3]) was less than 10 nM each time.
As for `Nc1ncc(-c2cccnc2F)cc1C(=O)N[C@H]1CCC[C@@H]1OCc1ccc(-c2ccc3c(c2)CCC[C@@H]3N2CCN(CCO)CC2)cc1` [Example 165, 6-amino-2′-fluoro-N-{(1S,2S)-2-[(4-{(5S)-5-[4-(2-hydroxyethyl)piperazin-1-yl]-5,6,7,8-tetrahydronaphthalen-2-yl}phenyl)methoxy]cyclopentyl}[3,3′-bipyridine]-5-carboxamide], the “% inhibition” value in assay [1] was 92%. For the same compound, the 50% inhibitory concentration (IC50) against human AXL (473-end) (setting [2]), at human TYRO3 (455-end) and at human MER (528-end) (setting [3]) was less than 10 nM in each case.
As to `CC1(C)C[C@H](N2CCN(C[C@H](O)CO)CC2)c2ccc(-c3ccc(CO[C@H]4CCC[C@@H]4NC(=O)c4cc(-c5cccnc5F)cnc4N)cc3)cc21` [Example 168, 6-amino-N-[(1S,2S)-2-({4-[(1S)-1-{4-[(2S)-2,3-dihydroxypropyl]piperazin-1-yl}-3,3-dimethyl-2,3-dihydro-1H-inden-5-yl]phenyl}methoxy)cyclopentyl]-2′-fluoro[3,3′-bipyridine]-5-carboxamide], the “% inhibition” value in assay [1] was 74%. Also, the IC50 at human AXL (473-end) (setting [2]) was less than 10 nM; at human TYRO3 (455-end), 10 to 100 nM; on human MER (528-end) (setting [3]), less than 10 nM.
